The source of these data is patent US20230286947A1, “COMPLEMENT FACTOR B INHIBITOR, AND PHARMACEUTICAL COMPOSITION, PREPARATION METHOD AND USE THEREOF” (SHANGHAI MEIYUE BIOTECH DEVELOPMENT CO. LTD, priority 2020, published 2023).

Data set [1] has as its target Complement factor B (Homo sapiens, UniProt P00751). Kind of data set: Optical surface plasmon resonance (SPR) binding capacity assay. On the procedure:
An SPR experiment was carried out at 25° C. In the experiment, a PBS buffer supplemented with 0.05% (v/v) P20 and 5% DMSO was used as a running buffer, and the analytical instrument Biacore 8K of GE Healthcare was used. A CM7 ship (GE Healthcare) was activated with 400 mM EDC and 100 mM NHS at a flow rate of 30 μL/min for 420 s. […] Then the assay chip was treated with 1 M ethanolamine hydrochloride at a flow rate of 10 μL/min for 300 s for chip blocking. The concentration of the test compound was 500 μM, the binding time was 120 s, and the dissociation time was 300 s. Data analysis was performed using a 1:1 binding model (Biacore Insight Evalution Software, Version 2.0.15.12933).
For orientation: In SPR one partner is held on a chip, and binding of the other changes the refractive index at the surface.

Data set [2] deals with T1, complement factor B in human serum (Homo sapiens, UniProt P00751).
T1 construct: from tissue; host or cells: normal human serum (NHS)
Kind of data set: Complement hemolytic activity assay (rabbit erythrocytes, normal human serum). Type of data set: cell-based. On the procedure: The hemolysis experiment was carried out by referring to the description in Xuan Yuan et al., Haematologica. […] Prior to the experiment, the optimal concentration of normal human serum (NHS) required to achieve 100% lysis of rabbit erythrocytes (REs) was obtained by titration testing. […] REs (collected from healthy Japanese big-ear white rabbits) freshly suspended in a GVBO buffer comprising 10 mM Mg-EGTA were added to a final concentration of 1×10^8 cells/mL and incubated at 37° C. for 30 min. A GVBO buffer comprising 10 mM Mg-EGTA and comprising NHS and RE but no test compound was used as a positive control group (100% lysis). A GVBO buffer comprising 10 mM Mg-EGTA and comprising inactivated NHS (heated at 56° C. for 30 min or at 65° C. for 5 min) and RE but no test compound was used as a negative control group (0% lysis). The samples were centrifuged at 2000 g for 5 min, and the supernatant was collected. Absorbance at 415 nm (A415) was measured using a microplate reader (Molecular Devices, SpectraMax i3X). IC50 values were calculated from percent hemolysis as a function of test compound concentration by non-linear regression.

Data set [3] in a line: Liver microsomal stability experiment (rat). In kind it is in vitro ADME. Here is the method:
(§1) A 0.1 M solution of potassium dihydrogen phosphate in distilled water (comprising 1 mM ethylenediaminetetraacetic acid) was taken. Then the pH was adjusted to 7.4 with the 0.1 M solution of dipotassium phosphate in distilled water (comprising 1 mM ethylenediaminetetraacetic acid).
Rat: SD Rat Liver Microsomes, Cat. No.: LM-DS-02M, RILD Research Institute for Liver Diseases (Shanghai) Co. Ltd.
(§2) A 10 mM solution of each of the control compound and test compounds was prepared in DMSO. Then 10 μL of the solution was added to 190 μL of acetonitrile to form a 0.5 mM mother liquor. 1.5 μL of the 0.5 mM compound mother liquor was measured out, and […] of 20 mg/mL liver microsomes and 479.75 μL of the buffer were added. (The actual preparation amount can be adjusted according to use).
(§3) A 10 mg/mL solution of reduced coenzyme II (NADPH) was prepared in the buffer. A 96-well plate was placed on ice. Wells corresponding to different time points (0, 10, 30, 60 and 90 min, Non-NADPH) were set for each compound. 30 μL of the working solution was added to each well. For 0 min wells, 155 μL of glacial acetonitrile solution (the internal standard concentration was 1 μM) was added first, and after the mixtures were well mixed using a pipet, 15 μL of NADPH (10 mg/mL) was added. Before the reactions were started, the 96-well plate was pre-incubated on a microplate shaker at 37° C. for 5 min. Then 15 μL of NADPH (10 mg/mL) was added to each well to start the metabolic reactions. After the reactions were carried out for 10, 30, 60 and 90 min, 155 μL of glacial acetonitrile solution (the internal standard concentration was 1 μM) was added to the corresponding wells to terminate the reactions. After 90 min, the reaction in the Non-NADPH system was terminated by adding 155 μL of glacial acetonitrile solution (the internal standard concentration was 1 μM). After the reaction was completed, the 96-well plate was shaken on a microplate shaker (600 rpm) for 10 min and then centrifuged at 4° C. at 4000 g for 15 min. 50 μL of the supernatant was added to a new 2 mL 96-well plate, and 300 μL of deionized water was added. The mixture was analyzed on an AB SCIEX ExionLC-Triple Quad 5500 high performance liquid chromatograph-mass spectrometer. The Analyst 1.6.3 software was used.
For orientation: Liver microsomes are a subcellular fraction often used to study metabolism.

A short description of data set [4]: Liver microsomal stability experiment (monkey). Type of data set: in vitro ADME. The note with it: cynomolgus monkey liver microsomes. On the procedure: as §1
Monkey: Cynomolgus Monkey Liver Microsomes, Cat. No.: LM-SXH-02M, RILD Research Institute for Liver Diseases (Shanghai) Co. Ltd.
as §2, §3

A short description of data set [5]: Liver microsomal stability experiment (human). In kind it is in vitro ADME. Here is the method: as §1
Human – Pooled Human Liver Microsomes (Mongolian), Cat. No.: LM-R-02M, RILD Research Institute for Liver Diseases (Shanghai) Co. Ltd.
as §2, §3

Data set [6] in a line: PK experiment of single intragastric administration to rats. The note with it: male, Wistar Han, plasma, po, rat, 3 mg/kg, mean. In kind it is in vivo. Here is the method:
Six- to nine-week-old male Wistar han rats (from Shanghai Sippe-Bk Lab Animal Co., Ltd.) were fasted overnight. Each group consisted of 3 rats, and they were given the control compound, the compound of Example 5 and the compound of Example 6, respectively, by intragastric administration at 3 mg/kg at a volume of 10 mL/kg. 0.2 mL of blood was collected from the jugular vein at each time point, anticoagulated with EDTA-K2 and immediately centrifuged at 4000 rpm at 4° C. for 5 min. The supeatant was collected. The samples were cryopreserved in a freezer at −80° C. before analysis. Time points of blood collection: before administration, 5 min 15 min, 30 min, 1 h, 2 h, 4 h, 7 h and 24 h. […] After blood collection at all of the time points was completed, the animals were euthanized. The plasma samples were analyzed by LC-MS/MS. The data were used to calculate kinetic parameters (Tmax, Cmax, T½ and AUC) in the WinNonlin software.

Data set [7] in a line: PK/PD experiment of single intragastric administration to cynomolgus monkeys: plasma concentration. The settings on record: same dose (3 & 30 mpk), FIG. 1. In kind it is in vivo. Here is the method: Cynomolgus monkeys were used. Each group consisted of 3 cynomolgus monkeys, and they were given the control compound and the compound of Example 5 (3 & 30 mpk) by intragastric administration. Blood was collected at different time points and analyzed for drug concentration and complement activity. The drug concentration in plasma was determined by LC-MS/MS. The complement activity in serum was determined using a wieslab assay (Svar Life Science AB, COMPL AP330 RUO) kit, Normal Human Serum (Complement Technology, NHS).

For data set [8], the system named is Streptococcus-induced rheumatoid arthritis. Kind of data set: Streptococcus-induced rheumatoid arthritis (RA) model in rats. In kind it is in vivo, Lewis rats. The settings on record: 15 mpk intragastric daily for 25 days, FIG. 3. On the procedure: In the experiment, six- to nine-week-old female Lewis rats (Beijing Vital River) were used. Each group consisted of 6 rats, and they were given the cell wall peptidoglycan complexes of Streptococcus and several other species of bacteria by intraperitoneal administration (2-3 mg per rat) on D1, and were given the control compound (15 mpk) and Example 5 (15 mpk) by intragastric administration daily for 25 consecutive days. The arthritis in rats was scored in different phases. The scoring criteria are as follows: Scoring according to the degree of lesion (redness and swelling) was performed on a scale of 0-4 points, with a maximum score of 4 for each limb and a total maximum score of 16 for each animal's limbs. The scoring criteria are as follows: 0 points: no redness and swelling; 1 point: 1-2 red and swollen interphalangeal joints; 2 points: 3-4 red and swollen interphalangeal joints; 3 points: more than 4 red and swollen interphalangeal joints; 4 points: severe redness and swelling in toes or fingers to ankle joints or wrist joints.

Each structure is given as a SMILES string. pIC50: −log10 of the molar value.

Chain of Complement factor B (P00751 26-764): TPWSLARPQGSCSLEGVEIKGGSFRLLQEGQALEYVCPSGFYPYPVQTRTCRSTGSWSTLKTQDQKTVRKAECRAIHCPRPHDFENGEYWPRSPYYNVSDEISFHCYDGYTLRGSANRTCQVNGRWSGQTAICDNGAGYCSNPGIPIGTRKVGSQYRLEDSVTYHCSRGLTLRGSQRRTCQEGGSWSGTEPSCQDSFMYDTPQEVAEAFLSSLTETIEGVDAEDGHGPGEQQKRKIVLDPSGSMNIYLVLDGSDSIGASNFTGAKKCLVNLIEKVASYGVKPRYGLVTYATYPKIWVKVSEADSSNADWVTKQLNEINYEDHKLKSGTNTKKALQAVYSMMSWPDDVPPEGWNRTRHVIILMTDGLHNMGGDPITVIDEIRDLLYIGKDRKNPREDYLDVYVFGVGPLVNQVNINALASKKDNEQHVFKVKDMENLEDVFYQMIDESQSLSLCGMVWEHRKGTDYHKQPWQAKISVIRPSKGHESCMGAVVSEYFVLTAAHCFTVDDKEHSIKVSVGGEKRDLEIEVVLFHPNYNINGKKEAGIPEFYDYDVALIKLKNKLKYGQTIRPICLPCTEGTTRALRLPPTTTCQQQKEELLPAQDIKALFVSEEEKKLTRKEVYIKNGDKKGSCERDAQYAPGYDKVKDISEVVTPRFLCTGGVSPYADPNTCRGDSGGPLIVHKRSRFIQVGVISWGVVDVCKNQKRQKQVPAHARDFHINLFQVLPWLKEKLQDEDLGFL
T1 sequence (P00751 26-764): as above

For orientation: pIC50 means the negative decadic logarithm of the IC50, by convention in mol/L. What is called AUC(0-inf) is total exposure, with the tail of the curve extrapolated. Usually AUC(0-t) stands for exposure summed from dosing to a finite time, without extrapolation to infinity. The term Cmax denotes the peak of the concentration-time curve. By Tmax is commonly meant the time from dosing to the highest level. Take `COc1cc(C)c2[nH]ccc2c1CN1CC[C@H](OCC2CC2)C[C@H]1c1ccc(C(=O)O)cc1` [Example 5]: the “binding capacity to the target protein compared with the control compound” value in data set [1] (at a concentration of 500 μM) is “significantly better than the control compound”. The “Rmax (RU)” value in data set [1] (test compound 500 μM, 25° C., 1:1 binding model) is listed as 274.2 RU. The “inhibitory activity against complement factor B in human serum compared with the control compound” value in data set [2] (hemolysis of rabbit erythrocytes) was “significantly better inhibitory activity against complement factor B in human serum than the control compound”. For the same compound, in data set [2] (rabbit erythrocytes, normal human serum, 37° C., read-out: Hemolysis IC50), the pIC50 was 7.06. Also, the half-life at 1 µM in data set [3] (SD, pH 7.4, rat liver microsomes, NADPH, read-out: MMS (rat) T1/2) amounted to 9.13 h. The “MMS (rat) Remaining (T = 90 min)” value in data set [3] (rat liver microsomes, T = 90 min) was found to be 89.14%. For the same compound, the “liver microsomal stability (in words)” value in data set [3] (statement covers rat, monkey and human liver microsomes (Table 3)) is reported as “more significant liver microsomal stability”. The “MMS (monkey) Remaining (T = 90 min)” value in data set [4] (T = 90 min) worked out at 93.32%. Also, the half-life at 1 µM in data set [4] (pH 7.4, NADPH, read-out: MMS (monkey) T1/2) was determined as 12.8 h. In addition, in data set [5] (human liver microsomes, T = 90 min), the “MMS (human) Remaining (T = 90 min)” value came out at 91.04%. Moreover, the half-life at 1 µM in data set [5] (pooled liver microsomes, pH 7.4, NADPH, read-out: MMS (human) T1/2) is 11.2 h. For the same compound, in data set [6], the AUC(0-inf) is 3280 ng·h/mL, the AUC(0-t) stood at 3120 ng·h/mL, the Cmax worked out at 1920 ng/mL and the Tmax came out at 0.25 h. The compound further had a half-life in data set [6] of 1.58 h. In addition, in data set [7], the “mean plasma concentration compared with the control compound” value is listed as “significantly higher mean plasma concentration than the control compound”. In data set [8], the arthritis score result was “can improve the arthritis score” and the “effect on arthritis score compared with the control compound” value is “significantly better effect than the control compound”.
